Tested on: MMP-1
Test: Inhibition of MMP-1 expression caused by UVB radiation in NHF cells
Format: cell-based, human
Details: NHF(p6), 40 mJ UVB, 48 hours, 10 uM positive control; Control UV = 230
Method: When MMPs are increased due to exposure to UV radiation, the increased MMPs will degrade skin collagen to form skin wrinkles. Thus, in order to examine whether MMP-1 expression that increased due to UV radiation is inhibited by the extract or culture medium of the wild ginseng cambium-derived homogeneous cell line, the following test was carried out.
NHF(p6) cells were dispensed in a 12-well plate at a density of 75,000 cells/well and starved for 24 hours. Then, the cells were radiated with 40 mJ of UVB and treated with varying concentrations of each of the samples for 48 hours. Then, an experiment was carried out using a kit (Amersham, RPN 2610). As a positive control, 10 μM retinoic acid was used.

## CC1=C(/C=C/C(C)=C/C=C/C(C)=C/C(=O)O)C(C)(C)CCC1 [Retinoic acid, retinoic acid]
  MMP-1 expression, % of control (No UV = 100): 85 % of control
